Reference: patent publication US6548496B2, “Substituted 3-cyano-[1.7], [1.5], and [1.8] naphthyridine inhibitors of tyrosine kinases” (American Cyanamid Company, priority 1999, dated 2003)

Experiments:
[1] = molecular target: T1, recombinant human MEK 1 (MAPKK) / human ERK2 (MAPK) (Homo sapiens, UniProt P28482+Q02750); assay: Mitogen Activated Protein Kinase (MAPK) coupled Mek-Erk assay; type: biochemical; settings: coupled MEK 1/ERK2 assay, 33P ATP; read-out: IC50, inhibition of Mitogen Activated Protein Kinase (Mek-Erk)
T1 construct: The recombinant enzymes used were prepared as GST fusion proteins of human ERK 2 and human MEK 1
Method: To evaluate inhibitors of the MAP (mitogen activated protein) kinase a two component coupled standard pharmacological test procedure, which measures phosphorylation of a serine/threonine residue in an appropriate sequence in the substrate in the presence and absence of a putative inhibitor, was used. Recombinant human MEK 1 (MAPKK) was first used to activate recombinant human ERK2 (MAPK) and the activated MAPK (ERK) was incubated with substrate (MEP peptide or MYC peptide) in the presence of ATP, Mg^+2 and radiolabeled ^33P ATP. The phosphorylated peptide was captured on a P 81 phosphocellulose filter (paper filter or embedded in microtiter plate) washed and counted by scintillation methods. […]
The reaction was run as follows in 50 mM Tris kinase buffer, pH 7.4 in a reaction volume of 50 ul. […] The filters or MTP were briefly air dried before addition of scintillant and samples were counted in the appropriate scintillation counter set up for reading ^33P isotope. […]
The raw data was captured as cpm Sample replicates were averaged and corrected for background count. Mean cpm data was tabulated by group and % inhibition by a test compound was calculated as (corrected cpm control-corrected. cpm sample/control)×100=% inhibition. […]

A2780S = assay: Inhibition of cancer cell growth by cell number, A2780S; type: cell-based, Human; settings: 48 hours exposure, Sulforhodamine B
Method: (§1) Human tumor cell lines were plated in 96-well plates (250 μl/well, 1-6×10^4 cells/ml) in RPMI 1640 medium, containing 5% FBS (Fetal Bovine Serum). […] After 48 hours exposure to test compounds, cells were fixed with trichloroacetic acid, and stained with Sulforhodamine B. After washing with trichloroacetic acid, bound dye was solubilized in 10 mM Tris base and optical density was determined using a plate reader. Under conditions of the assay the optical density is proportional to the number of cells in the well. IC50s (concentrations causing 50% inhibition of cell growth) were determined from the growth inhibition plots. The test procedure is described in details by Philip Skehan et. at J. Natl. Canc. Inst., 82, 1107-1112 (1990). […] Information about some of the cell lines used in these test procedures is available from the American […]: Cell Lines and Hybridomas, 1994 Reference Guide, 8th Edition. The Her2Neu cell line is a 3T3 line that has bbeen transfected with Her2 receptor kinase.

LOX = assay: Inhibition of cancer cell growth by cell number, LOX; type: cell-based, Human; settings: 48 hours exposure, Sulforhodamine B
Method: as §1

A431 = assay: Inhibition of cancer cell growth by cell number, A431; type: cell-based, Human; settings: 48 hours exposure, Sulforhodamine B
Method: as §1

SKBR3 = assay: Inhibition of cancer cell growth by cell number, SKBR3; type: cell-based, Human; settings: 48 hours exposure, Sulforhodamine B
Method: as §1

SW620 = assay: Inhibition of cancer cell growth by cell number, SW620; type: cell-based, Human; settings: 48 hours exposure, Sulforhodamine B
Method: as §1

A2780DDP = assay: Inhibition of cancer cell growth by cell number, A2780DDP; type: cell-based, Human; settings: 48 hours exposure, Sulforhodamine B
Method: as §1

MDA435 = assay: Inhibition of cancer cell growth by cell number, MDA435; type: cell-based, Human; settings: 48 hours exposure, Sulforhodamine B
Method: as §1

T1 sequence (P28482 2-360): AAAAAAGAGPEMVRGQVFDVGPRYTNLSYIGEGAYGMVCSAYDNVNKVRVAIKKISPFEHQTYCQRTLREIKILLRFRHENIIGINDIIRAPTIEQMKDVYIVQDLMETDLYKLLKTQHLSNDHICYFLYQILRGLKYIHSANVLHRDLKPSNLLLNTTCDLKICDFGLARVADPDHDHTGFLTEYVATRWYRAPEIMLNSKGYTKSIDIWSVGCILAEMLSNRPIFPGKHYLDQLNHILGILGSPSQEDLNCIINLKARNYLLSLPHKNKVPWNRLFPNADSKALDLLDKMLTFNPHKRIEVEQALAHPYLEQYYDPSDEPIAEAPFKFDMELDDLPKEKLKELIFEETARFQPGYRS
T1 sequence (Q02750 whole entry, the tested form may be a part): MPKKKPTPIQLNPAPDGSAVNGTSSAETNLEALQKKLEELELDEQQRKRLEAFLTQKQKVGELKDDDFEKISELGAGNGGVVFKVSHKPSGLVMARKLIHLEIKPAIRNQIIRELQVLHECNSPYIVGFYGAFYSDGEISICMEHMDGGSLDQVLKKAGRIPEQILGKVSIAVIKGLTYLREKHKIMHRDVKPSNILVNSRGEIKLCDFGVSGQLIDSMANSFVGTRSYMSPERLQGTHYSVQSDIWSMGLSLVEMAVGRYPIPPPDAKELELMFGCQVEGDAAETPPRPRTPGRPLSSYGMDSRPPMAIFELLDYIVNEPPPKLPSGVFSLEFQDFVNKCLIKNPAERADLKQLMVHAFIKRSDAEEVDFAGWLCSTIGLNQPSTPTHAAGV

For `N#Cc1cnc2ncc([N+](=O)[O-])cc2c1Nc1cccc(Br)c1` [Example 21, 4-(3-Bromo-phenylamino)-6-nitro-[1,8]naphthyridine-3-carbonitrile], the IC50 [1] was 10 µM.
“1-[4-(3-Bromo-phenylamino)-3-cyano-[1,7]naphthyridin-6-yl]-4-diethylamino-pyridinium Fluoride [Example 65]” was tested, and the “IC50, inhibition of cell growth, A2780S” value (A2780S) was 31 µg/mL, the “IC50, inhibition of cell growth, LOX” value (LOX) was 56 µg/mL and the “IC50, inhibition of cell growth, A431” value (A431) was 59 µg/mL. The “IC50, inhibition of cell growth, SKBR3” value (SKBR3) was 41 µg/mL, the “IC50, inhibition of cell growth, SW620” value (SW620) was 42 µg/mL and the “IC50, inhibition of cell growth, A2780DDP” value (A2780DDP) was 52 µg/mL. For the same compound, the “IC50, inhibition of cell growth, MDA435” value (MDA435) was 47 µg/mL.
